Measurements published in US20250339409A1, “USES OF PAN BET INHIBITORS” (VYNE THERAPEUTICS INC., priority 2021, published 2025).
Several values for one entry are separate records, joined by “and”; a condition that tells them apart may be missing. Identical values can stand only once. Marks after values point to notes of the source that are not given here.

Tested on: anti collagen antibodies induced arthritis (ACAIA)
Assay: Anti collagen antibodies induced arthritis (ACAIA) in mice, intra-articular treatment: paw thickness, arthritis clinical score, body weight;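 note: mouse arthritis induced by IV anti-collagen mAb on day 0 plus IP LPS on day 4, with body weight, caliper paw thickness and 0-4 paw score tracked against a day 0 baseline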
Conditions: for Clinical score of treated leg (Avg.) / Paw thickness Avg. Delta untreated -treated / Paw thickness of treated leg (Avg.) / Paw thickness of untreated leg (Avg.) / Percent change of weight per day (Av) / Percent change of weight per day (individual animal) / Δ clinical score untreated -treated, Avg. Delta: 10 mg/kg IA (Group 2)
[1] = BETi1 0.01 mg/kg IA (Group 5), Av
[2] = BETi1 0.01 mg/kg IA (Group 5), individual animals, 0.01 mg/kg
[3] = BETi1 0.1 mg/kg IA (Group 4), Av

## Cn1cc(-c2cccc(O)c2Oc2ccccc2)c2cc[nH]c2c1=O [BETi1]
Baseline
  Clinical score of treated leg (Avg.): 0.00 points
  Paw thickness Avg. Delta untreated -treated: −0.05 mm
  Paw thickness of treated leg (Avg.): 2.12 mm
  Paw thickness of untreated leg (Avg.): 2.07 mm
  Percent change of weight per day (Av): 100.00%
  Percent change of weight per day (individual animal): 100%
  Δ clinical score untreated -treated, Avg. Delta: 0.00 points
Day 3
  Clinical score of treated leg (Avg.): 0.00 points
  Paw thickness Avg. Delta untreated -treated: −0.01 mm
  Paw thickness of treated leg (Avg.): 2.16 mm
  Paw thickness of untreated leg (Avg.): 2.15 mm
  Percent change of weight per day (Av): 100.21%
  Percent change of weight per day (individual animal): 99.5% and 99.54% and 102.4038% and 101.3825% and 100.4673% and 98.1982% and 100%
  Δ clinical score untreated -treated, Avg. Delta: 0.00 points
Day 4
  Clinical score of treated leg (Avg.): 0.00 points
  Paw thickness Avg. Delta untreated -treated: −0.04 mm
  Paw thickness of treated leg (Avg.): 2.24 mm
  Paw thickness of untreated leg (Avg.): 2.20 mm
  Percent change of weight per day (Av): 100.95%
  Percent change of weight per day (individual animal): 100% and 99.07% and 102.8846% and 103.2258% and 100.9346% and 98.65% and 101.8779%
  Δ clinical score untreated -treated, Avg. Delta: 0.00 points
Day 5
  Clinical score of treated leg (Avg.): 0.00 points
  Paw thickness Avg. Delta untreated -treated: 0.01 mm
  Paw thickness of treated leg (Avg.): 2.16 mm
  Paw thickness of untreated leg (Avg.): 2.17 mm
  Percent change of weight per day (Av): 92.17%
  Percent change of weight per day (individual animal): 91.58% and 93.06% and 92.79% and 94.86% and 89.64% and 91.08%
  Δ clinical score untreated -treated, Avg. Delta: 0.00 points
Day 6
  Clinical score of treated leg (Avg.): 0.00* points
  Paw thickness Avg. Delta untreated -treated: 0.34*** mm
  Paw thickness of treated leg (Avg.): 2.17*** mm
  Paw thickness of untreated leg (Avg.): 2.51 mm
  Percent change of weight per day (Av): 92.02%
  Percent change of weight per day (individual animal): 93.56% and 91.67% and 92.31% and 91.1215% and 91.89% and 91.5493%
Day 7
  Clinical score of treated leg (Avg.): 0.50* points
  Paw thickness Avg. Delta untreated -treated: 0.77*** mm
  Paw thickness of treated leg (Avg.): 2.23** mm
  Paw thickness of untreated leg (Avg.): 3.00 mm
  Percent change of weight per day (Av): 91.86%
  Percent change of weight per day (individual animal): 92.57% and 89.81% and 93.75% and 91.59% and 91.44% and 92.02%
Day 8
  Clinical score of treated leg (Avg.): 0.83 points
  Paw thickness Avg. Delta untreated -treated: 1.04*** mm
  Paw thickness of treated leg (Avg.): 2.18** mm
  Paw thickness of untreated leg (Avg.): 3.22 mm
  Percent change of weight per day (Av): 90.62%
  Percent change of weight per day (individual animal): 92.08% and 88.89% and 94.23% and 87.85% and 90.99% and 89.67%
Day 10
  Clinical score of treated leg (Avg.): 0.17* points
  Paw thickness Avg. Delta untreated -treated: 1.27 mm
  Paw thickness of treated leg (Avg.): 2.14** mm
  Paw thickness of untreated leg (Avg.): 3.41 mm
  Percent change of weight per day (Av): 91.54%
  Percent change of weight per day (individual animal): 90.59% and 88.89% and 95.19% and 91.59% and 92.34% and 90.61%
Day 12
  Clinical score of treated leg (Avg.): 0.67 points
  Paw thickness Avg. Delta untreated -treated: 1.32 mm
  Paw thickness of treated leg (Avg.): 2.17 mm
  Paw thickness of untreated leg (Avg.): 3.48 mm
  Percent change of weight per day (Av): 94.92%
  Percent change of weight per day (individual animal): 95.54% and 93.98% and 98.08% and 92.99% and 95.05% and 93.9%
  Δ clinical score untreated -treated, Avg. Delta: 2.67 points
Day 6, * p < 0.05 vs. Vehicle
  Δ clinical score untreated -treated, Avg. Delta: 0.83* points
Day 7, * p < 0.05 vs. Vehicle
  Δ clinical score untreated -treated, Avg. Delta: 1.33* points
Day 8, * p < 0.05 vs. Vehicle
  Δ clinical score untreated -treated, Avg. Delta: 2.17* points
Day 10, * p < 0.05 vs. Vehicle
  Δ clinical score untreated -treated, Avg. Delta: 2.83* points
10 mg/kg IA, day 12
  reduction of arthritis score, treated vs untreated paw: 79.9%
  reduction of paw thickness, treated vs untreated paw: 37.6%
[1]
  Weight per day, Baseline: 20.6 g
  Weight per day, Day 3: 20.4 g
  Weight per day, Day 4: 19.9 g
  Weight per day, Day 5: 18.5 g
  Weight per day, Day 6: 18.1 g
  Weight per day, Day 7: 18.9 g
  Weight per day, Day 8: 18.5 g
  Weight per day, Day 10: 18.4 g
  Weight per day, Day 12: 19.1 g
[2]
  Weight per day, Baseline: 21 g (2×) and 20.9 g and 21.5 g and 21.4 g and 19.4 g and 18.7 g
  Weight per day, Day 3: 20.8 g and 20.6 g and 21.6 g and 20.9 g and 19.3 g and 18.8 g and 21 g
  Weight per day, Day 4: 21.1 g and 20.8 g and 20.9 g and 21.6 g and 17.4 g and 17.8 g and 19.6 g
  Weight per day, Day 5: 19.5 g and 18.7 g and 19.1 g and 20.2 g and 16.6 g and 16.8 g and 18.4 g
  Weight per day, Day 6: 19.1 g and 19 g and 18.6 g and 19.9 g and 15.6 g and 16.5 g and 18.1 g
  Weight per day, Day 7: 19.4 g and 19.3 g and 18.9 g and 20 g and 16 g and 19.9 g and 18.5 g
  Weight per day, Day 8: 19.3 g and 19.7 g and 18.9 g and 20.1 g and 16 g and 16.9 g and 18.5 g
  Weight per day, Day 10: 19.6 g and 19.5 g (2×) and 18.3 g and 16.2 g and 17.4 g and 18.6 g
  Weight per day, Day 12: 19.9 g and 20 g (2×) and 19.1 g and 16.9 g and 18.2 g and 19.3 g
[3]
  Weight per day, Baseline: 20.4 g
  Weight per day, Day 3: 20.6 g
  Weight per day, Day 4: 20.3 g
